18 compounds from patent publication US20230339939A1 (Bayer Aktiengesellschaft, priority 2020, published 2023) can be followed below.

The target in one experiment is CSNK1A1 (Homo sapiens (Human), UniProt P48729). The experiment can be described thus: CSNK1A1 High ATP Assay (ADP-Glo, 1 mM ATP). The note with it: median, read-out: CSNK1A1 high ATP assay IC50 [mol/l] (median). Format: biochemical. As to the method: CSNK1A1-inhibitory activity of compounds of the present invention in presence of 1 mM adenosine-tri-phosphate (ATP) was quantified employing the CSNK1A1-high-ATP-assay as described in the following paragraphs. In essence, the enzyme activity is measured by quantification of the adenosine-di-phosphate (ADP), which is generated as a co-product of the enzyme reaction, via the “ADP-Glo™ Kinase Assay” kit from the company Promega. This detection system works as follows: In a first step the ATP not consumed in the kinase reaction is quantitatively converted to cAMP employing an adenylate cyclase (“ADP-Glo-reagent”), then the adenylate cyclase is stopped and the ADP generated in the kinase reaction converted to ATP which generates in a luciferase-based reaction a glow-luminescence signal (“Kinase Detection Reagent”).
CSNK1A1, sequence (P48729 whole entry): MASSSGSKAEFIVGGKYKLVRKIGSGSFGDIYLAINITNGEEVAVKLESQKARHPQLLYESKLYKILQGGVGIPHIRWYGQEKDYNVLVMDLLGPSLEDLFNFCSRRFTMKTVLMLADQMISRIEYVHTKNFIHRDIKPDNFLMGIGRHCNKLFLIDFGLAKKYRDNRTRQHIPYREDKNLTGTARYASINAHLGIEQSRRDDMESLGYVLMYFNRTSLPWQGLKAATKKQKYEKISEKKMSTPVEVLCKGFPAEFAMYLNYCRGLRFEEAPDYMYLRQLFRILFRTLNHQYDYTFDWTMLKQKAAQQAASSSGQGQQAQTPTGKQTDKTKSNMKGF
Recombinant fusion protein of N-terminal Glutathion-S-Transferase (GST) and full-length human CSNK1A1, expressed by baculovirus infected insect cells and purified via Glutathion affinity chromatography, was purchased from Life Technologies (product no. PV4174) and used as enzyme. As substrate for the kinase reaction the biotinylated peptide biotin-Ahx-KRRRAL-pS-VASLPGL (C-terminus in amide form) was used which can be purchased e.g. from the company Biosyntan (Berlin-Buch, Germany).
For the assay 50 nl of a 100 fold concentrated solution of the test compound in DMSO was pipetted into a white low volume 384-well microtiter plate (Greiner Bio-One, Frickenhausen, Germany), 2 μL of a solution of CSNK1A1 in aqueous assay buffer [50 mM HEPES pH 7.5, 10% (v/v) glycerol, 10 mM MgCl2, 50 mM NaCl, 1 mM dithiothreitol, 0.01% (w/v) bovine serum albumin, 0.01% (v/v) Triton X-100] were added and the mixture was incubated for 15 min at 22° C. to allow pre-binding of the test compounds to the enzyme before the start of the kinase reaction. […] The concentration of CSNK1A1 was adjusted depending of the activity of the enzyme lot and was chosen appropriate to have the assay in the linear range, a typical concentration is about 0.4 ng/μL. The reaction was stopped by the addition of 2.5 μL of “ADP-Glo-reagent” (1:1.5 fold diluted with water) and the resulting mixture was incubated at 22° C. for 1 h to convert the ATP not consumed in the kinase reaction completely […]. Subsequently 2.5 μL of the “kinase detection reagent” (1.2 fold more concentrated than recommended by the producer) were added, the resulting mixture was incubated at 22° C. for 1 h and then the luminescence measured with a suitable measurement instrument (e.g. Viewlux™ from Perkin-Elmer). The amount of emitted light was taken as a measure for the amount of ADP generated and thereby for the activity of the CSNK1A1.

Experiment [1] deals with wild-type Epidermal Growth Factor Receptor (EGFR) (Homo sapiens (Human), UniProt P00533). The experiment can be described thus: WT-EGFR Kinase Assay (TR-FRET, 2 mM ATP). The format is biochemical. From the text:
Inhibitory activity of compounds of the present invention against wild-type Epidermal Growth Factor Receptor (EGFR) was quantified employing the TR-FRET based EGFR assay as described in the following paragraphs.
Recombinant fusion protein of N-terminal Glutathion-S-Transferase (GST) and a fragment of human EGFR (amino acids R669 to A1210), expressed in Sf9 insect cells and purified via affinity chromatography using Glutathion Sepharose as described above, was used as kinase. As substrate for the kinase reaction the biotinylated peptide biotin-Ahx-[…] (C-terminus in amide form) was used which can be purchased e.g. form the company Biosynthan GmbH (Berlin-Buch, Germany).
For the assay 50 nl of a 100 fold concentrated solution of the test compound in DMSO was pipetted into either a black low volume 384 well microtiter plate or a black 1536 well microtiter plate (both Greiner Bio-One, Frickenhausen, Germany), 2 μL of a solution of EGFR in aqueous assay buffer [50 mM Hepes pH 7.0, 10 mM MgCl2, 1 mM dithiothreitol, 0.5 mM EGTA, 0.3 mM activated sodium ortho-vanadate, 0.005% (w/v) bovine serum albumin, 0.005% (v/v) Tween-20] were added and the mixture was incubated for 15 min at 22° C. to allow pre-binding of the test compounds to the enzyme before the start of the kinase reaction. […] The concentration of EGFR was adjusted depending of the activity of the enzyme lot and was chosen appropriate to have the assay in the linear range, typical concentration was 7.6 pg/μL. The reaction was stopped by the addition of 3 μL of a solution of HTRF detection reagents (83.3 nM streptavidine-XL665 [Cisbio Bioassays, Codolet, France] and 1.67 nM PT66-Tb-Cryptate, a terbium-cryptate labelled anti-phospho-tyrosine antibody from Cisbio Bioassays [instead of the PT66-Tb-cryptate PT66-Eu-Chelate from Perkin Elmer can also be used]) in an aqueous EDTA-solution (133.3 mM EDTA, 0.2% (w/v) bovine serum albumin in 50 mM HEPES pH 7.5).
The resulting mixture was incubated 1 h at 22° C. to allow the binding of the biotinylated phosphorylated peptide to the streptavidine-XL665 and the PT66-Tb-Cryptate. Subsequently the amount of phosphorylated substrate was evaluated by measurement of the resonance energy transfer from the PT66-Tb-Cryptate to the streptavidine-XL665. Therefore, the fluorescence emissions at 620 nm and 665 nm after excitation at 337 nm were measured in a HTRF reader, e.g. a Pherastar (BMG Labtechnologies, Offenburg, Germany) or a Viewlux (Perkin-Elmer). The ratio of the emissions at 665 nm and at 622 nm was taken as the measure for the amount of phosphorylated substrate.
(Time-resolved FRET reads energy transfer from a long-lived donor to a nearby acceptor.)

Where [2] appears, read: read-out: EGFR Wildtype 2 mM ATP IC50 [mol/l] (median).

The structures appear in SMILES notation. Read-outs that look alike come from different tables or passages of the source.

wild-type Epidermal Growth Factor Receptor (EGFR), sequence (P00533 669-1210): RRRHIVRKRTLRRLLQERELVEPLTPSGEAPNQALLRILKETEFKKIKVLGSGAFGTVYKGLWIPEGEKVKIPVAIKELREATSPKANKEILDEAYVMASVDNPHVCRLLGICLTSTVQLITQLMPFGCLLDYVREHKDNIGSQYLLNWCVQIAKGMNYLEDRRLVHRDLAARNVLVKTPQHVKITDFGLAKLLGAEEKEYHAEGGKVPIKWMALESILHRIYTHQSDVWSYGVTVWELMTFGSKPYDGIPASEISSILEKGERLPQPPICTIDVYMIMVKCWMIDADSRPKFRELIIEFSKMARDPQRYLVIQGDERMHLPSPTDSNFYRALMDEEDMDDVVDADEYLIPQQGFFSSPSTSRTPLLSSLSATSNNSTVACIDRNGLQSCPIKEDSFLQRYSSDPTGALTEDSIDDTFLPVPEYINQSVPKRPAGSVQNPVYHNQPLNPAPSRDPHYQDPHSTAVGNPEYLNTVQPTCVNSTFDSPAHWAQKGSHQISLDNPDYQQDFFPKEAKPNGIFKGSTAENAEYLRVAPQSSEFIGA

For `O=C(Cc1ccc(F)cc1)Nc1cc(-c2[nH]c3cccnc3c2-c2ncccn2)ccn1` [Example 16, 2-(4-fluorophenyl)-N-{4-[3-(pyrimidin-2-yl)-1H-pyrrolo[3,2-b]pyridin-2-yl]pyridin-2-yl}acetamide], the IC50 at CSNK1A1 was 97.9 nM; in experiment [1] (median), 17500 nM; in experiment [1] (setting [2]), more than 20000 nM.

As for `O=C(Cc1ccc(F)cc1)Nc1cc(-c2[nH]c3cccnc3c2-c2ccccc2)ccn1` [Example 14, 2-(4-fluorophenyl)-N-[4-(3-phenyl-1H-pyrrolo[3,2-b]pyridin-2-yl)pyridin-2-yl]acetamide], the results for the IC50 (at CSNK1A1; in experiment [1] (median); in experiment [1] (setting [2])) were 45.5 nM, more than 20000 nM and 19100 nM, respectively.

For `O=C(Cc1ccc(F)cc1)Nc1cc(-c2[nH]c3c(C4CC4)ccnc3c2-c2ccccn2)ccn1` [Example 35, N-{4-[7-cyclopropyl-3-(pyridin-2-yl)-1H-pyrrolo[3,2-b]pyridin-2-yl]pyridin-2-yl}-2-(4-fluorophenyl)acetamide], the IC50 at CSNK1A1 was 6.39 nM; in experiment [1] (setting [2]), more than 20000 nM.

For `COCC(C(=O)Nc1cc(-c2[nH]c3cccnc3c2-c2ccccn2)ccn1)c1ccc(F)cc1` (racemic) [Example 43, (2RS)-2-(4-fluorophenyl)-3-methoxy-N-(4-(3-(pyridin-2-yl)-1H-pyrrolo[3,2-b]pyridin-2-yl)pyridin-2-yl)propanamide], the IC50 at CSNK1A1 was 40.1 nM; in experiment [1] (median) it was more than 20000 nM.

As for `COCCC(C(=O)Nc1cc(-c2[nH]c3cccnc3c2-c2ccccn2)ccn1)c1ccc(F)cc1` (racemic) [Example 44], the IC50 at CSNK1A1 is 59.2 nM; in experiment [1] (median) it was more than 20000 nM.

Regarding `CC(C(=O)Nc1cc(-c2[nH]c3ccc(F)nc3c2-c2ccccn2)ccn1)c1ccc(F)cc1` (racemic) [Example 1, 2-(4-fluorophenyl)-N-{4-[5-fluoro-3-(pyridin-2-yl)-1H-pyrrolo[3,2-b]pyridin-2-yl]pyridin-2-yl}propanamide], the IC50 at CSNK1A1 is 16 nM; in experiment [1] (median) it was more than 20000 nM.

Consider `Cc1cc2[nH]c(-c3ccnc(NC(=O)Cc4ccc(F)cc4)c3)c(-c3ccccn3)c2nc1F` [Example 27, N-{4-[5-fluoro-6-methyl-3-(pyridin-2-yl)-1H-pyrrolo[3,2-b]pyridin-2-yl]pyridin-2-yl}-2-(4-fluorophenyl)acetamide], for which the IC50 is 11.2 nM at CSNK1A1 and more than 20000 nM in experiment [1] (setting [2]).

In the case of `CN1CCC(N(C)c2ccnc3c(-c4ccccn4)c(-c4ccnc(NC(=O)Cc5ccc(F)cc5)c4)[nH]c23)CC1` [Example 39, 2-(4-fluorophenyl)-N-(4-{7-[methyl(1-methylpiperidin-4-yl)amino]-3-(pyridin-2-yl)-1H-pyrrolo[3,2-b]pyridin-2-yl}pyridin-2-yl)acetamide], the results for the IC50 (on CSNK1A1; in experiment [1] (setting [2])) were 32.9 nM and 1090 nM, respectively.

`CC(C(=O)Nc1cc(-c2[nH]c3cccnc3c2-c2ccccn2)ccn1)c1ccc(F)cc1` (racemic) [Example 6, 2-(4-fluorophenyl)-N-{4-[3-(pyridin-2-yl)-1H-pyrrolo[3,2-b]pyridin-2-yl]pyridin-2-yl}propanamide]: the IC50 at CSNK1A1 was 8.47 nM; in experiment [1] (median), more than 20000 nM.

Consider `C=Cc1ccnc2c(-c3ccccn3)c(-c3ccnc(NC(=O)Cc4ccc(F)cc4)c3)[nH]c12` [Example 33, N-{4-[7-ethenyl-3-(pyridin-2-yl)-1H-pyrrolo[3,2-b]pyridin-2-yl]pyridin-2-yl}-2-(4-fluorophenyl)acetamide], for which the IC50 at CSNK1A1 came to 29 nM; in experiment [1] (setting [2]) it was 15100 nM.

In the case of `CC(C(=O)Nc1cc(-c2[nH]c3cc(Cl)cnc3c2-c2ccccn2)ccn1)c1ccc(F)cc1` (centres unmarked) [Example 52, N-{4-[6-chloro-3-(pyridin-2-yl)-1H-pyrrolo[3,2-b]pyridin-2-yl]pyridin-2-yl}-2-(4-fluorophenyl)propanamide], the IC50 at CSNK1A1 is 382 nM; in experiment [1] (setting [2]), more than 20000 nM.

For `COc1ccc2[nH]c(-c3ccnc(NC(=O)Cc4ccc(F)cc4)c3)c(-c3ccccn3)c2n1` [Example 32, 2-(4-fluorophenyl)-N-{4-[5-methoxy-3-(pyridin-2-yl)-1H-pyrrolo[3,2-b]pyridin-2-yl]pyridin-2-yl}acetamide], the IC50 is 23.3 nM at CSNK1A1 and more than 20000 nM in experiment [1] (setting [2]).

Regarding `O=C(Cc1ccc(F)cc1)Nc1cc(-c2[nH]c3cccnc3c2-c2ncccn2)ccn1` [Example 51, 2-(4-fluorophenyl)-N-{4-[3-(pyrimidin-2-yl)-1H-pyrrolo[3,2-b]pyridin-2-yl]pyridin-2-yl}acetamide], the figures for the IC50 (on CSNK1A1; in experiment [1] (setting [2])) were 180 nM and more than 20000 nM, respectively.

On to `COc1ccnc2c(-c3ccccn3)c(-c3ccnc(NC(=O)Cc4ccc(F)cc4)c3)[nH]c12` [Example 31, 2-(4-fluorophenyl)-N-{4-[7-methoxy-3-(pyridin-2-yl)-1H-pyrrolo[3,2-b]pyridin-2-yl]pyridin-2-yl}acetamide], for which the IC50 is 5.63 nM at CSNK1A1 and more than 20000 nM in experiment [1] (setting [2]).

For `CCc1ccnc2c(-c3ccccn3)c(-c3ccnc(NC(=O)Cc4ccc(F)cc4)c3)[nH]c12` [Example 34, N-{4-[7-ethyl-3-(pyridin-2-yl)-1H-pyrrolo[3,2-b]pyridin-2-yl]pyridin-2-yl}-2-(4-fluorophenyl)acetamide], the IC50 is 13.5 nM at CSNK1A1 and more than 20000 nM in experiment [1] (setting [2]).

For the compound `CC(C(=O)Nc1cc(-c2[nH]c3cccnc3c2-c2ccccn2)ccn1)c1ccc(F)cc1` (single isomer, unassigned; (-)) [Example 8, (−)-2-(4-fluorophenyl)-N-{4-[3-(pyridin-2-yl)-1H-pyrrolo[3,2-b]pyridin-2-yl]pyridin-2-yl}propanamide], the IC50 is 334 nM at CSNK1A1 and more than 20000 nM in experiment [1] (setting [2]).

Turning to `COCC(C(=O)Nc1cc(-c2[nH]c3cc(F)cnc3c2-c2ccccn2)ccn1)c1ccc(F)cc1` (racemic) [Example 45, (2RS)-2-(4-fluorophenyl)-N-[4-[6-fluoro-3-(2-pyridyl)-1H-pyrrolo[3,2-b]pyridin-2-yl]-2-pyridyl]-3-methoxy-propanamide], the IC50 is 38.8 nM at CSNK1A1 and more than 20000 nM in experiment [1] (median).

`O=C(Cc1ccc(F)cc1)Nc1cc(-c2[nH]c3cccnc3c2-c2ccccn2)ccn1` [Example 5, 2-(4-fluorophenyl)-N-{4-[3-(pyridin-2-yl)-1H-pyrrolo[3,2-b]pyridin-2-yl]pyridin-2-yl}acetamide]: the IC50 is 6.1 nM at CSNK1A1 and more than 20000 nM in experiment [1] (setting [2]).
